Data as given in patent US20220249596A1, “PIC1 PEPTIDE COMPOSITIONS AND METHODS OF USE THEREOF FOR TREATMENT OF HYPOXIC ISCHEMIC ENCEPHALOPATHY” (REALTA HOLDINGS, LLC, priority 2019, published 2022).
No end group written: not given here.

Assays:
Assay type in all cases: in vivo, rat
C5a = assay: Systemic C5a level in plasma, fluorescent immunoassay; conditions: 12 and 24 hours after initial insult, P<0.05; persisted to 48 hours
Protocol: (§1) The local and systemic effects of NT, HT and PIC1 treatment on the complement cascade were measured. CNS C1q levels and systemic C1q and C5a levels were measured using a fluorescent immunoassay.
(§2) Systemic C1q and C5a levels were measured as follows. 100 μl of 1:5 plasma in 1×PBS was added to the wells of a plate described above and incubated overnight at 4° C. The plates were washed 3 times with PBST and blocked with NDS or NGS for one hour. Samples were probed with either 1:50 goat anti-human C1q (Complement Technology) in NDS or 1:200 mouse anti-human C5a (Human Complement Component C5a DuoSet ELISA, R&D Systems, Inc., Minneapolis, Minn.) in NGS for one hour at RT. The wells were washed and 1:500 donkey anti-goat 488 (Life Technologies) in NDS or 1:500 goat anti-mouse AF 568 (Life Technologies) in NGS was added, and incubated for one hour at RT. The wells were washed and the plate read using a Synergy HT (BioTek). Systemic C3a levels in plasma (1:20 dilution) were measured using a standard ELISA, according to the manufacturer's instructions (Rat C3a ELISA Kit, TSZ ELISA, Waltham, Mass.).

[1] = tested on: neurons, microglia and astrocytes of ipsilateral cortex and hippocampus; assay: Immunofluorescence of neurons (NeuN), microglia (Iba1), astrocytes (GFAP) after HIE; conditions: P<0.05
Protocol: (§3) TUNEL/C1q staining was performed as follows. Five (5) μm paraffin-embedded coronal brain sections on slides were incubated (1 hour; 60° C.), deparaffinized with xylene, and rehydrated with ethanol (100%, 95%, 70%; RT). Endogenous peroxidase activity was blocked (0.3% H2O2/MeOH; 10 minutes; RT), and heat induced antigen retrieval was performed (when indicated) using 10 mM sodium citrate, pH 6.0. 10% normal serum (from the same species as the host of the secondary antibody) was used to block and to dilute antibodies. Samples were washed twice for 10 min each, in PBST between each step.
(§4) After blocking for one hour at room temperature, tissues were incubated with 1:300 goat anti-Iba1 (Abcam), 1:250 goat anti-GFAP (Abcam), 1:500 chicken anti-NeuN (Millipore, Billerica, Mass.), or 1:100 mouse anti-NeuN (Millipore) in host appropriate blocking serum overnight at 4° C. Primary antibodies were probed with 1:500 donkey anti-goat (Abcam), goat anti-chicken (Abcam), or goat anti-mouse (Abcam) AF 488 or 568 in appropriate blocking serum for one hour at room temperature. Tissues were blocked a second time with NGS for one hour at room temperature. Samples were then probed with 1:300 mouse anti-C1q (Abcam), 1:300 rabbit anti-C9, 1:50 rabbit anti-MPO (Abcam), 1:200 rabbit anti-TMEM (Novus Bio, Centennial, Colo.), 1:100 rabbit anti-C3aR (Bioss), 1:100 Mouse anti-C5aR (Hycult), or 1:200 chicken anti-C3/C3a (Abcam) in NGS overnight at 4° C. and then with 1:500 goat anti-mouse, rabbit, or chicken (Abcam) AF 488 or 568 in NGS for one hour at room temperature.
Fluorescent images of the cortex were taken at 20× magnification using a digital camera (DP70, Olympus Center, Valley Forge, Pa.), mounted on a BX50 Olympus microscope. Adobe Photoshop CS5 was used to merge immunofluorescence images, and Image J (National Institutes of Health) was used for analysis.

C5aR = assay: Whole brain C5aR expression, Western blotting and immunofluorescence; conditions: NT versus PIC1-treated groups
Protocol: as §4
Without wishing to be bound by theory, C3a is generated at the convergence of all known complement activation pathways (i.e., the classical, alternate and lectin pathways). To investigate further, C3aR levels in the brain were measured by Western blotting and immunofluorescence (FIG. 5). Western blotting was performed as follows. […]

C1q = assay: CNS C1q level in whole cell brain lysate, fluorescent immunoassay; conditions: 8, 12 and 24 hours after initial insult, P<0.05
Protocol: as §1
CNS C1q levels were measured as follows. 150 μg of whole cell brain lysate in 1× PBS was added to the wells of a Costar high binding, black flat bottom 96-well polystyrene microplate (Corning, Steuben County, NY) and incubated overnight at 4° C. The plates were washed 3 times with 1× PBS-0.1% Tween 20 (PBST) and blocked with 10% normal donkey serum (NDS) for one hour. A 1:50 dilution of goat anti-human C1q (Complement Technology, Inc., Tyler, Tex.) in NDS was added into the wells and incubated for one hour at room temperature (RT). After washing, a 1:500 dilution of donkey anti-goat Alexa Fluor (AF) 488 (Life Technologies, Grand Island, N.Y.) in NDS was added, and incubated for one hour at RT. Wells were then washed and blocked with 10% normal goat serum (NGS) for one hour at RT. A 1:250 dilution of mouse anti-GAPDG (Abcam, Cambridge, UK) in NGS was added into the wells and incubated for one hour at RT. Wells were washed and a 1:500 dilution of goat anti-mouse AF 568 (Life Technologies, Grand Island, N.Y.) in NGS was added to incubate for one hour at RT. The wells were washed and the plate read using a Synergy HT (BioTek, Winooski, Vt.).

C3a = assay: Systemic C3a level in plasma, ELISA; conditions: 8, 12 and 24 hours after initial insult, P<0.05
Protocol: as §2

C9 = assay: Immunofluorescence quantification of C9 in brain; conditions: ipsilateral cortex and hippocampus, 48 hours, versus NT, P<0.05
Protocol: as §3
After blocking for one hour at room temperature, tissues were incubated with 1:300 goat anti-Iba1 (Abcam), 1:250 goat anti-GFAP (Abcam), 1:500 chicken anti-NeuN (Millipore, Billerica, Mass.), or 1:100 mouse anti-NeuN (Millipore) in host appropriate blocking serum overnight at 4° C. Primary antibodies were probed with 1:500 donkey anti-goat (Abcam), goat anti-chicken (Abcam), or goat anti-mouse (Abcam) AF 488 or 568 in appropriate blocking serum for one hour at room temperature. Tissues were blocked a second time with NGS for one hour at room temperature. […]

IALILEPICCQERAA-dPEG24 (cysteine pairing not given here) [PIC1]
systemic C5a levels, NT animals relative to PIC1-treated animals (C5a): significantly higher | neuronal density ([1]; 48 hours, versus NT and HT): higher neuronal density | astrogliosis ([1]; versus NT): reduced astrogliosis | microglial numbers and size ([1]; versus NT): reduced microglial numbers and size | expression of C5aR (C5aR): no significant differences | whole brain C1q levels, NT animals relative to PIC1-treated animals (C1q): significantly higher | C3a levels in plasma, NT animals relative to PIC1-treated animals (C3a): significantly higher | C9 expression (C9): decreased expression
